Measured values from patent publication US9758477B2, “Sulfamoylbenzamide derivatives as antiviral agents against HBV infection” (priority 2011, dated 2017).

What was measured:
HBV [1] = experiment: Antiviral efficacy in AML12HBV10 cells, HBV DNA by dot-blot hybridization; type: cell-based, Hepatitis B virus (HBV); settings: Hepatitis B virus
Method: The antiviral efficacy of the compounds of the disclosure, as presented in Tables 5, 6, 7, 8 and 9, were determined in AML12HBV10 cells. AML12HBV10 is an immortalized murine hepatocyte (AML12)-derived stable cell line that supports robust HBV replication in a tetracycline inducible manner (Xu et al.). The cells were seeded into 96 well plates at a density of 2×10^4 cells per well and cultured in DMEM/F12 media with 10% fetal bovine serum in the absence of tetracycline to allow pgRNA transcription and HBV DNA replication. One day after seeding, cells were left untreated or treated with a serial dilution of testing compounds, ranging from 50 μM to 0.39 μM, for 48 hours. Cells were then lysed by adding into each well of 100 μl lysis buffer containing 10 mM Tris-HCl (pH 7.6), 1 mM EDTA, 100 mM NaCl and 1% NP-40 and incubated at 37° C. for 30 minutes. Half amount (50 μl) of cell lysate from each well was combined with equal volume of denaturing solution containing 0.5N NaOH and 1.5M NaCl. After 5 minute incubation, 100 μl of neutralization solution (IM Tris-HCl, pH 7.4, 1.5M NaCl) was added into each well. The denatured cell lysates (totally 200 μl) were applied onto Nylon membrane using 96-well dot-blot manifold (Biorad). HBV DNA in the cell lysates were determined by dot-blot hybridization with alpha-^32P-UTP-labelled riboprobe specific for HBV minus strand DNA. The antiviral efficacy of a compound of the disclosure was expressed as the concentration that reduces the amount of HBV DNA by 50% (EC50).

[2] = Cytotoxicity in AML12HBV10 cells, MTT assay; type: cell-based, murine; settings: mouse; AML12HBV10 cells, 48 hours, MTT; read-out: CC50 (cellular toxicity)
Method: (§1) Determination of cytotoxicity of compounds of the disclosure in AML12HBV10 cells: To determine the cytotoxicity of the compounds, AML12HBV10 cells were seeded into 96-well plates at a density of 2×10^4 cells per well and cultured in DMEM/F12 media with 10% fetal bovine serum in the absence of tetracycline to allow pgRNA transcription and HBV DNA replication. One day after seeding, cells were left untreated or treated with a serial dilution of testing compounds, ranging from 50 μM to 0.39 μM, for 48 hours. The cell viability was measured by a MTT assay, following procedure provided by the manufacturer (Promega). The cytotoxicity of a compound was expressed as the concentration of compound that reduces the viability of the cells by 50% (CC50).

AML12HBV10 cells = experiment: Cytotoxicity in AML12HBV10 cells, MTT assay; type: cell-based, murine; settings: Table 10, AML12HBV10 cells, unit inferred; read-out: AML12HBV10 CC50
Method: as §1

HBV [3] = experiment: Antiviral activity in HepDES19 cells, core-associated HBV DNA by Southern blot hybridization; type: cell-based; settings: Hepatitis B virus, 144 h, Table 10, HepDES19 cells, 6 days, unit inferred; for EC90: HBV DNA reduced by 90%; for EC50: Southern blot
Method: FIG. 2 and Table 10, in human hepatoma-derived cell lines: To further confirm the antiviral activity of the compounds of the disclosure against HBV in human hepatocyte-derived cells, HepDES19 cells, a human hepatoma cell line supporting HBV replication in a tetracycline inducible manner (Guo et al., 2007), seeded into 12-well plates at a density of 5×10^5 cells per well and cultured in DMEM/F12 media with 10% fetal bovine serum and 1 μg/ml tetracycline. Two days after seeding, the cells were mock-treated or treated with a serial dilution of compounds of the disclosure, ranging from 10 μM to 0.018 μM, for 6 days in the absence of tetracycline. Upon the completion of treatment, cells were lysed by adding into each well of the 12-well plates 0.5 ml of lysis buffer containing 10 mM Tris-HCl (pH 8.0), 1 mM EDTA, 1% NP40 and 2% sucrose and incubating at 37° C. for 10 minutes. Cell debris and nuclei were removed by centrifugation and the supernatant was mixed with 130 μl of 35% polyethylene glycol (PEG) 8000 containing 1.5 M NaCl. After 1 hour incubation in ice, viral nucleocapsids were pelleted by centrifugation at 6,000×g for 5 min at 4° C., followed by 1 hour digestion at 37° C. in 400 μl of digestion buffer containing 0.5 mg/ml pronase (Calbiochem), 0.5% SDS, 150 mM NaCl, 25 mM Tris-HCl (pH 8.0) and 10 mM EDTA. The digestion mixture was extracted twice with phenol and DNA was precipitated with ethanol, dissolved in TE buffer (10 mM Tris-HCl, pH 8.0; 0.1 mM EDTA). One half of the DNA sample from each well was resolved by electrophoresis into a 1.5% agarose gel. The gel was then subjected to denaturation in a solution containing 0.5 M NaOH and 1.5 M NaCl, followed by neutralization in a buffer containing 1 M Tris-HCl (pH7.4) and 1.5 M NaCl. DNA was then blotted onto Hybond-XL membrane (GE Health care) in 20×SSC buffer. The amounts of cytoplasmic HBV core-associated HBV DNA were determined by Southern blot hybridization and the antiviral efficacy of a compound was expressed as its concentration that reduce the amount of HBV DNA by 50% (EC50) or 90% (EC90).

[4] = Cytotoxicity in HepDES19 cells, MTT assay; type: cell-based; settings: human, Table 10, HepDES19 cells, unit inferred
Method: as §1, with “human hepatoma-derived cell lines, HepDES19” for “AML12HBV10 cells: To determine the cytotoxicity of the compounds, AML12HBV10”, “2×10^4” left out, “tetracycline.” for “tetracycline to allow pgRNA transcription and HBV DNA replication.”, “6 days.” for “48 hours.”

[5] = AML12HBV10 cells, 48 hours, concentration reducing HBV DNA by 50%, read-out: EC50 (antiviral activity by dot blot hybridization)
[6] = Table 10, AML12HBV10 cells, unit inferred, read-out: AML12HBV10 EC50

CCC(C)NS(=O)(=O)c1ccc(F)c(C(=O)Nc2ccc(F)c(F)c2)c1 (centres unmarked) [DVR-23, 5-sec-butylsulfamoyl-N-(3,4-difluoro-phenyl)-2-fluoro-benzamide]
EC50 (HBV [1]; [5]): 390 nM | EC50 (HBV [1]; [6]): 390 nM | CC50 at 48 h [2]: > 50000 nM | CC50 (AML12HBV10 cells): > 50000 nM | EC90 (HBV [3]): 860 nM | EC50 (HBV [3]): 280 nM | CC50 at 6 days [4]: > 50000 nM

O=C(Nc1ccc(F)c(F)c1)c1cc(S(=O)(=O)NC2CCCC2)ccc1F [DVR-56, 5-cyclopentylsulfamoyl-N-(3,4-difluoro-phenyl)-2-fluoro-benzamide]
EC50 (HBV [1]; [5]): 390 nM | EC50 (HBV [1]; [6]): 390 nM | CC50 at 48 h [2]: > 50000 nM | CC50 (AML12HBV10 cells): > 50000 nM | EC90 (HBV [3]): 1850 nM | EC50 (HBV [3]): 420 nM | CC50 at 6 days [4]: > 50000 nM
